# Patent publication US12110295B2, “WD40 repeat domain protein 5 (WDR5) degradation/disruption compounds and methods of use” (Icahn School of Medicine at Mount Sinai, priority 2018, dated 2024)
# Target: WDR5 (Homo sapiens, UniProt P61964)
# Assay: Screening of putative WDR5 degraders by Western blot in MV4;11 and/or MIAPACA2 cells
# Format: cell-based
# Parameters: After WDR5 degrader treatment, cells were collected and lysed; endogenous in cells; host or cells: MV4;11 and/or MIAPACA2
# Settings: summary of screening, FIGS. 6-10
# Description: MV4;11 cells were treated with DMSO or indicated compounds at 0.1 μM and 0.5 μM for 18 hours. […]. MIAPACA2 cells were treated with DMSO or indicated compounds at 0.5 μM and 1.0 μM for 18 hours.
# MIAPACA2 cells were treated with DMSO or indicated compounds at 0.1 μM and 0.5 μM for 18 hours.
# MIAPACA2 cells were treated with DMSO or indicated compounds at 0.5 μM and 1.0 μM or at 1.0 μM and 10 μM for 18 hours.
# MV4;11 cells were treated with DMSO or indicated compounds at 0.1 μM and 1.0 μM for 18 hours.
# WDR5 degraders were dissolved in DMSO and DMSO with no degraders was used as the control. 1×10^6 MV4;11 cells or 1×10^5 MIAPACA2 or 2×10^5 Hela cells were seeded in 2 mL medium for each well in […].
# For prescreening of all the compounds, each test compound was added to the medium at indicated concentrations. After 18 h treatment, cells were collected.
# After WDR5 degrader treatment, cells were collected and lysed. Total cell lysates were used for western blot. The following primary antibodies were used: WDR5 (Santa Cruz), vinculin (Cell Signaling Technology), tubulin (Cell Signaling Technology), GAPDH (Santa Cruz). Blots were imaged using fluorescence-labeled secondary antibodies on ChemiDoc™ Imaging Systems.
row,SMILES,effective degradation of WDR5 in MV4;11 and/or MIAPACA2 cells
1,"C[C@@H]1CN(c2cc(F)c(C3=CCN(c4ncc(CN5CCN(C(=O)CCOCCOCCOCCOCCNc6cccc7c6C(=O)N(C6CCC(=O)NC6=O)C7=O)CC5)cn4)CC3)cc2NC(=O)c2c[nH]c(=O)cc2C(F)(F)F)C[C@H](C)N1C (stereo partly drawn) [XF078-159, N-(5-(1-(5-((4-(1-((2-(2,6-dioxopiperidin-3-yl)-1,3-dioxoisoindolin-4-yl)amino)-3,6,9,12-tetraoxapentadecan-15-oyl)piperazin-1-yl)methyl)pyrimidin-2-yl)-1,2,3,6-tetrahydropyridin-4-yl)-4-fluoro-2-((3S,5R)-3,4,5-trimethylpiperazin-1-yl)phenyl)-6-oxo-4-(trifluoromethyl)-1,6-dihydropyridine-3-carboxamide]",able to effectively degrade WDR5
2,"Cc1ncsc1-c1ccc(CNC(=O)[C@@H]2C[C@@H](O)CN2C(=O)[C@@H](NC(=O)CCOCCC(=O)NCCN2CCN(Cc3ccc(F)c(-c4ccc(N5C[C@@H](C)N(C)[C@@H](C)C5)c(NC(=O)c5c[nH]c(=O)cc5C(F)(F)F)c4)c3)CC2)C(C)(C)C)cc1 [XF078-2, N-(2′-fluoro-5′-((4-(2-(3-(3-(((S)-1-((2S,4R)-4-hydroxy-2-((4-(4-methylthiazol-5-yl)benzyl)carbamoyl)pyrrolidin-1-yl)-3,3-dimethyl-1-oxobutan-2-yl)amino)-3-oxopropoxy)propanamido)ethyl)piperazin-1-yl)methyl)-4-((3S,5R)-3,4,5-trimethylpiperazin-1-yl)-[1,1′-biphenyl]-3-yl)-6-oxo-4-(trifluoromethyl)-1,6-dihydropyridine-3-carboxamide]",able to effectively degrade WDR5
3,"C[C@@H]1CN(c2ccc(-c3cc(CN4CCN(CCNC(=O)CCCCCCNc5cccc6c5C(=O)N(C5CCC(=O)NC5=O)C6=O)CC4)ccc3F)cc2NC(=O)c2c[nH]c(=O)cc2C(F)(F)F)C[C@H](C)N1C (stereo partly drawn) [XF078-23, N-(5′-((4-(2-(7-((2-(2,6-dioxopiperidin-3-yl)-1,3-dioxoisoindolin-4-yl)amino)heptanamido)ethyl)piperazin-1-yl)methyl)-2′-fluoro-4-((3S,5R)-3,4,5-trimethylpiperazin-1-yl)-[1,1′-biphenyl]-3-yl)-6-oxo-4-(trifluoromethyl)-1,6-dihydropyridine-3-carboxamide]",able to effectively degrade WDR5
4,"Cc1ncsc1-c1ccc(CNC(=O)[C@@H]2C[C@@H](O)CN2C(=O)[C@@H](NC(=O)COCCOCCNC(=O)CCC(=O)N2CCN(c3ccc(-c4cc(NC(=O)c5c[nH]c(=O)cc5C(F)(F)F)c(N5C[C@@H](C)N(C)[C@@H](C)C5)cc4F)cn3)CC2)C(C)(C)C)cc1 [XF067-142, N-(4-fluoro-5-(6-(4-((S)-3-((2S,4R)-4-hydroxy-2-((4-(4-methylthiazol-5-yl)benzyl)carbamoyl)pyrrolidine-1-carbonyl)-2,2-dimethyl-5,14-dioxo-7,10-dioxa-4,13-diazaheptadecan-17-oyl)piperazin-1-yl)pyridin-3-yl)-2-((3S,5R)-3,4,5-trimethylpiperazin-1-yl)phenyl)-6-oxo-4-(trifluoromethyl)-1,6-dihydropyridine-3-carboxamide]",able to effectively degrade WDR5
5,"Cc1ncsc1-c1ccc(CNC(=O)[C@@H]2C[C@@H](O)CN2C(=O)[C@@H](NC(=O)COCC(=O)NCCN2CCN(Cc3ccc(F)c(-c4ccc(N5C[C@@H](C)N(C)[C@@H](C)C5)c(NC(=O)c5c[nH]c(=O)cc5C(F)(F)F)c4)c3)CC2)C(C)(C)C)cc1 [XF078-1, N-(2′-fluoro-5′-((4-(2-(2-(2-(((S)-1-((2S,4R)-4-hydroxy-2-((4-(4-methylthiazol-5-yl)benzyl)carbamoyl)pyrrolidin-1-yl)-3,3-dimethyl-1-oxobutan-2-yl)amino)-2-oxoethoxy)acetamido)ethyl)piperazin-1-yl)methyl)-4-((3S,5R)-3,4,5-trimethylpiperazin-1-yl)-[1,1′-biphenyl]-3-yl)-6-oxo-4-(trifluoromethyl)-1,6-dihydropyridine-3-carboxamide]",able to effectively degrade WDR5
6,"Cc1ncsc1-c1ccc(CNC(=O)[C@@H]2C[C@@H](O)CN2C(=O)[C@@H](NC(=O)CCOCCOCCOCCOCCC(=O)N2CCN(c3ncc(-c4cc(NC(=O)c5ccc(F)cc5C(F)(F)F)c(N5C[C@@H](C)N(C)[C@@H](C)C5)cc4F)cn3)CC2)C(C)(C)C)cc1 [XF078-105, (2S,4R)-1-((S)-2-(tert-butyl)-19-(4-(5-(2-fluoro-5-(4-fluoro-2-(trifluoromethyl)benzamido)-4-((3S,5R)-3,4,5-trimethylpiperazin-1-yl)phenyl)pyrimidin-2-yl)piperazin-1-yl)-4,19-dioxo-7,10,13,16-tetraoxa-3-azanonadecanoyl)-4-hydroxy-N-(4-(4-methylthiazol-5-yl)benzyl)pyrrolidine-2-carboxamide]",able to effectively degrade WDR5
7,"Cc1ncsc1-c1ccc(CNC(=O)[C@@H]2C[C@@H](O)CN2C(=O)[C@@H](NC(=O)CCCCC(=O)N2CC=C(c3cc(NC(=O)c4c[nH]c(=O)cc4C(F)(F)F)c(N4C[C@@H](C)N(C)[C@@H](C)C4)cc3F)CC2)C(C)(C)C)cc1 [XF078-41, N-(4-fluoro-5-(1-(6-(((S)-1-((2S,4R)-4-hydroxy-2-((4-(4-methylthiazol-5-yl)benzyl)carbamoyl)pyrrolidin-1-yl)-3,3-dimethyl-1-oxobutan-2-yl)amino)-6-oxohexanoyl)-1,2,3,6-tetrahydropyridin-4-yl)-2-((3S,5R)-3,4,5-trimethylpiperazin-1-yl)phenyl)-6-oxo-4-(trifluoromethyl)-1,6-dihydropyridine-3-carboxamide]",able to effectively degrade WDR5
8,"Cc1ncsc1-c1ccc([C@H](C)NC(=O)[C@@H]2C[C@@H](O)CN2C(=O)[C@@H](NC(=O)CCCCCCCCCC(=O)N2CCN(c3ccc(-c4cc(NC(=O)c5c[nH]c(=O)cc5C(F)(F)F)c(N5C[C@@H](C)N(C)[C@@H](C)C5)cc4F)cn3)CC2)C(C)(C)C)cc1 [XF067-134, N-(4-fluoro-5-(6-(4-(11-(((S)-1-((2S,4R)-4-hydroxy-2-(((S)-1-(4-(4-methylthiazol-5-yl)phenyl)ethyl)carbamoyl)pyrrolidin-1-yl)-3,3-dimethyl-1-oxobutan-2-yl)amino)-11-oxoundecanoyl)piperazin-1-yl)pyridin-3-yl)-2-((3S,5R)-3,4,5-trimethylpiperazin-1-yl)phenyl)-6-oxo-4-(trifluoromethyl)-1,6-dihydropyridine-3-carboxamide]",able to effectively degrade WDR5
9,"Cc1ncsc1-c1ccc(CNC(=O)[C@@H]2C[C@@H](O)CN2C(=O)[C@@H](NC(=O)CCCCCCCC(=O)NCCN2CCN(Cc3ccc(F)c(-c4ccc(N5C[C@@H](C)N(C)[C@@H](C)C5)c(NC(=O)c5c[nH]c(=O)cc5C(F)(F)F)c4)c3)CC2)C(C)(C)C)cc1 [XF078-15, N^1-(2-(4-((6-fluoro-3′-(6-oxo-4-(trifluoromethyl)-1,6-dihydropyridine-3-carboxamido)-4′-((3S,5R)-3,4,5-trimethylpiperazin-1-yl)-[1,1′-biphenyl]-3-yl)methyl)piperazin-1-yl)ethyl)-N^9-((S)-1-((2S,4R)-4-hydroxy-2-((4-(4-methylthiazol-5-yl)benzyl)carbamoyl)pyrrolidin-1-yl)-3,3-dimethyl-1-oxobutan-2-yl)nonanediamide]",able to effectively degrade WDR5
10,"C[C@@H]1CN(c2ccc(-c3cc(CN4CCN(CCNC(=O)CCOCCOCCOCCNc5cccc6c5C(=O)N(C5CCC(=O)NC5=O)C6=O)CC4)ccc3F)cc2NC(=O)c2c[nH]c(=O)cc2C(F)(F)F)C[C@H](C)N1C (stereo partly drawn) [XF078-27, N-(5′-((4-(1-((2-(2,6-dioxopiperidin-3-yl)-1,3-dioxoisoindolin-4-yl)amino)-12-oxo-3,6,9-trioxa-13-azapentadecan-15-yl)piperazin-1-yl)methyl)-2′-fluoro-4-((3S,5R)-3,4,5-trimethylpiperazin-1-yl)-[1,1′-biphenyl]-3-yl)-6-oxo-4-(trifluoromethyl)-1,6-dihydropyridine-3-carboxamide]",able to effectively degrade WDR5
11,"C[C@@H]1CN(c2cc(F)c(-c3cnc(N4CCN(C(=O)CCCCCCNc5cccc6c5C(=O)N(C5CCC(=O)NC5=O)C6=O)CC4)nc3)cc2NC(=O)c2ccc(F)cc2C(F)(F)F)C[C@H](C)N1C (stereo partly drawn) [XF078-121, N-(5-(2-(4-(7-((2-(2,6-dioxopiperidin-3-yl)-1,3-dioxoisoindolin-4-yl)amino)heptanoyl)piperazin-1-yl)pyrimidin-5-yl)-4-fluoro-2-((3S,5R)-3,4,5-trimethylpiperazin-1-yl)phenyl)-4-fluoro-2-(trifluoromethyl)benzamide]",able to effectively degrade WDR5
